Data taken from ChEMBL document CHEMBL2417521, “Class A G-protein-coupled receptor (GPCR) dimers and bivalent ligands” (J Med Chem, 2013).

Legend:
HEK293 = test: Selectivity ratio of EC50 for mu/kappa opioid receptor in HEK293 cells to EC50 for mu opioid receptor in HEK293 cells; type: cell-based; details: Homo sapiens
[1] = target: Dopamine receptor D2L/neurotensin receptor NTS1 (Homo sapiens) (UniProt P14416+P30989); test: Ratio of Ki for D2L/NTS1 (unknown origin) expressed in HEK293 cell membrane in presence of neurotensin to Ki for D2L/NTS1 (unknown origin) expressed in HEK293 cell membrane in absence of neurotensin; type: cell-based

Row | Structure (SMILES) | Ratio EC50 (HEK293) | Ratio Ki [1]
1 | O=C(N[C@@H]1CC[C@@]2(O)[C@H]3Cc4ccc(O)c5c4[C@@]2(CCN3CC2CC2)[C@H]1O5)c1ccc2ccccc2c1 | 1000 | 
2 | CCCN(CCCCNC(=O)c1cnn2ccccc12)C1Cc2ccccc2C1 |  | 34
